Measured values from ChEMBL document CHEMBL6078624, “Structure-based discovery of a 4,5-Dihydropyrazole-cored PET ligand for imaging of receptor-interacting serine/threonine-protein kinase 1 (RIPK1) in the brain” (Eur J Med Chem, 2024).

Columns and labels:
[1] = Biodistribution in male ICR mouse brain at 0.74 MBq, iv administered into tail vein pre-treated with WL8 followed by compound addition by automatic gamma counter analysis relative to baseline; type: ADME, organism-based; conditions: in vivo
[2] = Biodistribution in male ICR mouse lungs at 0.74 MBq, iv administered into tail vein measured at 60 mins post-injection by automatic gamma counter analysis; type: ADME, organism-based, Lung; conditions: in vivo, 1 h
[3] = Drug uptake in male Sprague-Dawley rat brain at 12.6 to 18.6 MBq, iv administered into tail vein measured after rapid washout by PET/CT imaging analysis; type: ADME, organism-based; conditions: in vivo, dose 12.6-18.6 MBq
[4] = Biodistribution in male ICR mouse brain at 0.74 MBq, iv administered into tail vein pre-treated with WL8 at 2 mg/kg followed by compound addition by automatic gamma counter analysis; type: ADME, organism-based; conditions: in vivo
[5] = Biodistribution in male ICR mouse brain at 0.74 MBq, iv administered into tail vein pre-treated with GSK'547 followed by compound addition by automatic gamma counter analysis relative to baseline; type: ADME, organism-based; conditions: in vivo
[6] = Biodistribution in male ICR mouse bone at 0.74 MBq, iv administered into tail vein measured at 2 mins post-injection by automatic gamma counter analysis; type: ADME, organism-based, Bone element; conditions: in vivo
[7] = Biodistribution in male ICR mouse small intestine at 0.74 MBq, iv administered into tail vein pre-treated with GSK'547 followed by compound addition by automatic gamma counter analysis; type: ADME, organism-based; conditions: in vivo
[8] = Biodistribution in male ICR mouse liver at 0.74 MBq, iv administered into tail vein by automatic gamma counter analysis; type: ADME, organism-based; conditions: in vivo
[9] = Biodistribution in male ICR mouse liver at 0.74 MBq, iv administered into tail vein measured at 60 mins post-injection by automatic gamma counter analysis; type: ADME, organism-based; conditions: in vivo, 1 h
[10] = Biodistribution in male ICR mouse brain at 0.74 MBq, iv administered into tail vein measured at 2 mins post-injection by automatic gamma counter analysis; type: ADME, organism-based; conditions: in vivo
[11] = Drug uptake in male Sprague-Dawley rat cerebellum at 12.6 to 18.6 MBq, iv administered into tail vein by PET/CT imaging analysis; type: ADME, organism-based; conditions: in vivo, dose 12.6-18.6 MBq
[12] = Biodistribution in male ICR mouse brain at 0.74 MBq, iv administered into tail vein pre-treated with WL8 at 6 mg/kg followed by compound addition by automatic gamma counter analysis; type: ADME, organism-based; conditions: in vivo
[13] = Drug uptake in male mouse midbrain at 5 microCi/ml incubated for 30 mins by phosphor imager analysis; type: ADME, tissue-based; conditions: 0.5 h
[14] = Biodistribution in male ICR mouse kidney at 0.74 MBq, iv administered into tail vein pre-treated with GSK'547 followed by compound addition by automatic gamma counter analysis relative to baseline; type: ADME, organism-based; conditions: in vivo
[15] = Biodistribution in male ICR mouse blood at 0.74 MBq, iv administered into tail vein pre-treated with GSK'547 followed by compound addition by automatic gamma counter analysis relative to baseline; type: ADME, organism-based; conditions: in vivo
[16] = Biodistribution in male ICR mouse liver at 0.74 MBq, iv administered into tail vein pre-treated with WL8 followed by compound addition by automatic gamma counter analysis relative to baseline; type: ADME, organism-based; conditions: in vivo
[17] = Drug degradation in male mouse liver assessed as parent compound remaining at 26.6 MBq by radio-HPLC analysis; type: ADME, tissue-based
[18] = Biodistribution in male ICR mouse bone at 0.74 MBq, iv administered into tail vein pre-treated with WL8 followed by compound addition by automatic gamma counter analysis relative to baseline; type: ADME, organism-based, Bone element; conditions: in vivo
[19] = Biodistribution in male ICR mouse blood at 0.74 MBq, iv administered into tail vein measured at 2 mins post-injection by automatic gamma counter analysis; type: ADME, organism-based; conditions: in vivo
[20] = Biodistribution in male ICR mouse heart at 0.74 MBq, iv administered into tail vein pre-treated with WL8 followed by compound addition by automatic gamma counter analysis relative to baseline; type: ADME, organism-based; conditions: in vivo
[21] = Biodistribution in male ICR mouse brain at 0.74 MBq, iv administered into tail vein measured at 30 mins post-injection by automatic gamma counter analysis; type: ADME, organism-based; conditions: in vivo, 0.5 h
[22] = Biodistribution in male ICR mouse pancreas at 0.74 MBq, iv administered into tail vein pre-treated with GSK'547 followed by compound addition by automatic gamma counter analysis relative to baseline; type: ADME, organism-based; conditions: in vivo
[23] = Drug uptake in male mouse thalamus at 5 microCi/ml incubated for 30 mins by phosphor imager analysis; type: ADME, tissue-based; conditions: 0.5 h
[24] = Biodistribution in male ICR mouse muscle tissue at 0.74 MBq, iv administered into tail vein pre-treated with GSK'547 followed by compound addition by automatic gamma counter analysis relative to baseline; type: ADME, organism-based; conditions: in vivo
[25] = Biodistribution in male ICR mouse blood at 0.74 MBq, iv administered into tail vein pre-treated with WL8 followed by compound addition by automatic gamma counter analysis; type: ADME, organism-based; conditions: in vivo
[26] = Biodistribution in male ICR mouse stomach at 0.74 MBq, iv administered into tail vein pre-treated with GSK'547 followed by compound addition by automatic gamma counter analysis relative to baseline; type: ADME, organism-based; conditions: in vivo
[27] = Biodistribution in male ICR mouse lungs at 0.74 MBq, iv administered into tail vein by automatic gamma counter analysis; type: ADME, organism-based, Lung; conditions: in vivo

Q: For Cc1ccc(C2CC=NN2C(=O)C2CCN(C(=O)c3cccc([18F])n3)CC2)cc1F (configuration not stated), which Drug uptake [1] is on record?
A: Active

Q: And the Drug uptake [2]?
A: < 4 % ID/g

Q: What about the SUV [3] of the same molecule?
A: 0.12

Q: What about the Drug uptake [4] of the same molecule?
A: 58%

Q: What about the Drug uptake [5] of the same molecule?
A: Active

Q: What about the Drug uptake [6] of the same molecule?
A: 3.09 % ID/g

Q: What about the Drug uptake [7] of the same molecule?
A: > 27%

Q: What about the Drug uptake [8] of the same molecule?
A: > 6.5 % ID/g

Q: And the Drug uptake [9]?
A: < 4 % ID/g

Q: And the Drug uptake [10]?
A: 4.8 % ID/g

Q: What about the SUV [11] of the same molecule?
A: Active

Q: What about the Drug uptake [12] of the same molecule?
A: 129%

Q: What about the Drug uptake [13] of the same molecule?
A: Active

Q: And the Drug uptake [14]?
A: Active

Q: And the Drug uptake [15]?
A: Active

Q: What about the Drug uptake [16] of the same molecule?
A: Active

Q: What about the Stability [17] of the same molecule?
A: 13.6%

Q: And the Drug uptake [18]?
A: Not_active

Q: What about the Drug uptake [19] of the same molecule?
A: 4.57 % ID/g

Q: What about the Drug uptake [20] of the same molecule?
A: Active

Q: And the Drug uptake [21]?
A: 0.36 % ID/g

Q: And the Drug uptake [22]?
A: Active

Q: And the Drug uptake [23]?
A: Active

Q: And the Drug uptake [24]?
A: Active

Q: And the Drug uptake [25]?
A: > 58%

Q: And the Drug uptake [26]?
A: Active

Q: And the Drug uptake [27]?
A: > 6.5 % ID/g
